Test results from the supplement of paper PMC6045584.
± gives the standard deviation of the averaged measurements.

Experiments:
[1] = compound: CC(=O)NCC(=O)N1[C@@H]2CC[C@H]1c1ccc(Nc3ncc(C(F)(F)F)c(NC4CCC4)n3)cc12; assay: surviving fraction relative to DMSO-only wells; higher = less growth inhibition; conditions: exposure time: 5 days
In short: (§1)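 Tumour cell lines were grown to log phase and seeded at 250–500 cells per well in 384-well plates. They were exposed continuously to inhibitors at 0.5, 1, 5, 10, 50, 100, 500 and 1000 nM for five days, beginning 24 hours after seeding. Surviving fraction is CellTiter-Glo luminescence normalised to the median of DMSO-only wells.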

CAMPTOTHECIN = compound: CC[C@@]1(O)C(=O)OCc2c1cc1n(c2=O)Cc2cc3ccccc3nc2-1 [CAMPTOTHECIN]; assay: as above; conditions: exposure time: 5 days
In short: as §1

Test System | surviving fraction ([1]; 0.5 nM) | surviving fraction ([1]; 1 nM) | surviving fraction ([1]; 5 nM) | surviving fraction ([1]; 10 nM) | surviving fraction ([1]; 50 nM) | surviving fraction ([1]; 100 nM) | surviving fraction ([1]; 500 nM) | surviving fraction ([1]; 1000 nM) | surviving fraction (CAMPTOTHECIN; 0.5 nM) | surviving fraction (CAMPTOTHECIN; 1 nM) | surviving fraction (CAMPTOTHECIN; 5 nM) | surviving fraction (CAMPTOTHECIN; 10 nM) | surviving fraction (CAMPTOTHECIN; 50 nM) | surviving fraction (CAMPTOTHECIN; 100 nM) | surviving fraction (CAMPTOTHECIN; 500 nM) | surviving fraction (CAMPTOTHECIN; 1000 nM)
HCT15 LARGE INTESTINE | 0.969 ± 0.062 | 0.9727 ± 0.009 | 0.971 ± 0.037 | 0.98 ± 0.036 | 0.394 ± 0.11 | 0.211 ± 0.034 | 0.17 ± 0.041 | 0.0853 ± 0.0072 | 0.33 ± 0.031 | 0.779 ± 0.041 | 0.232 ± 0.083 | 0.0333 ± 0.0047 | 0.0227 ± 0.0038 | 0.0337 ± 0.0038 | 0.0207 ± 0.0021 | 0.0277 ± 0.0038
MDAMB157 BREAST | 0.954 ± 0.082 | 0.854 ± 0.042 | 0.858 ± 0.081 | 0.895 ± 0.064 | 0.79 ± 0.11 | 0.498 ± 0.068 | 0.431 ± 0.077 | 0.216 ± 0.041 | 0.857 ± 0.063 | 0.911 ± 0.034 | 0.674 ± 0.061 | 0.319 ± 0.058 | 0.26 ± 0.0076 | 0.247 ± 0.019 | 0.135 ± 0.0051 | 0.118 ± 0.014
MDAMB134 BREAST | 0.998 ± 0.048 | 1.07 ± 0.37 | 1.01 ± 0.04 | 1.02 ± 0.11 | 0.992 ± 0.041 | 1.25 ± 0.18 | 1.13 ± 0.12 | 1.31 ± 0.1 | 0.662 ± 0.057 | 0.625 ± 0.048 | 0.66 ± 0.016 | 0.587 ± 0.031 | 0.602 ± 0.0085 | 0.594 ± 0.0057 | 0.587 ± 0.13 | 0.518 ± 0.044
HT1080 SOFT TISSUE | 0.998 ± 0.035 | 0.983 ± 0.011 | 0.964 ± 0.05 | 0.961 ± 0.031 | 0.66 ± 0.0067 | 0.404 ± 0.011 | 0.303 ± 0.004 | 0.281 ± 0.0093 | 0.956 ± 0.017 | 0.925 ± 0.027 | 0.739 ± 0.034 | 0.361 ± 0.0046 | 0.377 ± 0.014 | 0.26 ± 0.022 | 0.0953 ± 0.016 | 0.0837 ± 0.0075
MHM BONE | 0.986 ± 0.016 | 0.989 ± 0.031 | 0.979 ± 0.019 | 0.999 ± 0.011 | 0.986 ± 0.034 | 0.96 ± 0.041 | 0.764 ± 0.02 | 0.629 ± 0.028 | 0.9523 ± 0.0021 | 0.969 ± 0.031 | 0.94 ± 0.026 | 0.927 ± 0.025 | 0.462 ± 0.022 | 0.334 ± 0.017 | 0.16 ± 0.016 | 0.121 ± 0.0075
SUM149 BREAST | 0.949 ± 0.11 | 1.02 ± 0.11 | 1.07 ± 0.089 | 0.986 ± 0.056 | 0.67 ± 0.074 | 0.389 ± 0.071 | 0.267 ± 0.029 | 0.224 ± 0.032 | – | – | – | 0.126 ± 0.0081 | 0.102 ± 0.0081 | 0.0913 ± 0.0049 | 0.048 ± 0.0052 | 0.0367 ± 0.0055
COLO320DM LARGE INTESTINE | 1.1 ± 0.058 | 1.09 ± 0.077 | 0.979 ± 0.086 | 0.954 ± 0.035 | 0.573 ± 0.087 | 0.559 ± 0.02 | 0.283 ± 0.0029 | 0.237 ± 0.015 | 0.381 ± 0.011 | 0.929 ± 0.12 | 0.458 ± 0.026 | 0.38 ± 0.023 | 0.137 ± 0.003 | 0.263 ± 0.0072 | 0.138 ± 0.0052 | 0.127 ± 0.0051
MFM223 BREAST | 1.1 ± 0.065 | 1.02 ± 0.035 | 1.05 ± 0.094 | 0.963 ± 0.077 | 0.794 ± 0.082 | 0.699 ± 0.063 | 0.47 ± 0.029 | 0.378 ± 0.027 | 0.746 ± 0.07 | 0.703 ± 0.03 | 0.566 ± 0.047 | 0.573 ± 0.11 | 0.754 ± 0.087 | 0.662 ± 0.041 | 0.296 ± 0.072 | 0.303 ± 0.1
CCK81 LARGE INTESTINE | – | – | – | – | – | – | – | – | 0.789 ± 0.034 | 0.805 ± 0.085 | 0.693 ± 0.16 | 0.542 ± 0.097 | 0.506 ± 0.051 | 0.416 ± 0.046 | 0.056 ± 0.007 | 0.0267 ± 0.0049
